Our source for the Kd values is patent publication US20260272925A1, “CDK2 MODULATORS, COMPOSITIONS, AND METHODS OF USE THEREOF” (Type6 Therapeutics, Inc., priority 2023, published 2026).

The assay has as its target T1, Cdk2(2-298) (Homo sapiens, UniProt P24941).
T1 construct: Biotinylated N-terminal avi-tagged Cdk2(2-298) or Cdk1(1-297) was immobilized
The experiment in a line: Surface Plasmon Resonance (SPR), Biacore 8K, compound interaction with immobilized kinase. The class given is binding. As to conditions: biotinylated N-terminal avi-tagged protein on Chip SA, single-cycle kinetics (SCK, "S") mode, 1% DMSO, pH 7.5, read-out: Activity rating* (KD). As for the experimental part:
Surface Plasmon Resonance (SPR) Method Description
Compound interaction was profiled using a Biacore 8K instrument (Cytiva). Biotinylated N-terminal avi-tagged Cdk2(2-298) or Cdk1(1-297) was immobilized on a series S sensor Chip SA at a capture level between 2500 RU and 3000 RU (Cdk2) or 7000 RU (Cdk1) in buffer (25 mM HEPES, 150 mM NaCl, 0.05% Tween20, pH 7.5). A compound dilution plate (8 concentrations, 3-fold dilution) in DMSO was prepared (100× assay concentration). From this plate, compound DMSO stock solution was transferred into buffer, yielding a final DMSO concentration of 1% in assay. The remaining buffer was supplemented with 1% DMSO. Compounds were injected in a series of increasing concentrations in multi-cycle kinetics (MCK, “M”) or single-cycle kinetics (SCK, “S”) mode at a flow rate of 30 μl/min for 120 sec and dissociation was profiled for 180 sec (MCK) or 1800 sec (SCK). Data were analysed using Biacore Insight Evaluation Software (Cytiva).
For orientation: Surface plasmon resonance follows binding to a sensor surface in real time, without labels.
A word on the Kd: it is the constant that tells how readily two partners part at equilibrium. With `N[C@H]1CC[C@H](Nc2nccc(-c3cccnc3Oc3ccc(NS(=O)(=O)c4ccccc4Cl)cc3)n2)CC1` [Compound 411, N-[4-[(1r,4r)[3-[2-[(4-Aminocyclohexyl)amino]pyrimidin-4-yl]-2-pyridyl]oxy]phenyl]2-chlorobenzenesulfonamide], the dissociation constant Kd was in the range of 11 to 100 nM. With `O=S(=O)(Nc1ccc(Oc2ncccc2-c2ccnc(N[C@H]3CCCNC3)n2)c(F)c1)c1ccccc1Cl` [Compound 413, N—((S)-4-((3-(2-(piperidin-3-ylamino)pyrimidin-4-yl)pyridin-2-yl)oxy)-3-fluorophenyl) 2-chlorobenzenesulfonamide] the figure was at most 10 nM; with `N[C@H]1CC[C@H](Nc2nccc(-c3nccnc3Oc3ccc(NS(=O)(=O)c4ccccc4Cl)cc3F)n2)CC1` [Compound 402, N-[4-[(1r,4r)[3-[2-[(4-Aminocyclohexyl)amino]pyrimidin-4-yl]pyrazin-2-yl]oxy]-3-fluorophenyl]2-chlorobenzenesulfonamide], 100 to 1000 nM. `N[C@H]1CC[C@H](Nc2nccc(-c3cccnc3Oc3ccc(NS(=O)(=O)c4cccc5ccccc45)cc3F)n2)CC1` [Compound 415, N-[4-[(1r,4r)[3-[2-[(4-Aminocyclohexyl)amino]pyrimidin-4-yl]pyrid-2-yl]oxy]-3-fluorophenyl]naphthalene-1-sulfonamide]: the Kd lay in the range of 11 to 100 nM. To `O=S(=O)(Nc1ccc(Oc2nccnc2-c2ccnc(N[C@H]3CCCNC3)n2)c(F)c1)c1ccccc1Cl` [Compound 390, N-[3-Fluoro-4-[[3-[2-[[(3S)-3-piperidinyl]amino]pyrimidin-4-yl]-2-pyrazinyl]oxy]phenyl]2-chlorobenzenesulfonamide] belongs 11 to 100 nM. With `N[C@H]1CC[C@H](Nc2nccc(-c3cccnc3Oc3ccc(NS(=O)(=O)c4ccc5ccccc5c4)cc3F)n2)CC1` [Compound 417, N-[4-[(1r,4r)[3-[2-[(4-Aminocyclohexyl)amino]pyrimidin-4-yl]pyrid-2-yl]oxy]-3-fluorophenyl]naphthalene-2-sulfonamide] the figure was 100 to 1000 nM. With `O=S(=O)(Nc1ccc(Oc2ncsc2-c2ccnc(N[C@H]3CCCNC3)n2)c(F)c1)c1ccccc1Cl` [Compound 391, N-[3-Fluoro-4-[[5-[2-[[(3S)-3-piperidinyl]amino]pyrimidin-4-yl]-4-thiazolyl]oxy]phenyl]2-chlorobenzenesulfonamide] the figure was at most 10 nM; with `N[C@H]1CC[C@H](Nc2nccc(-c3cccnc3Oc3ccc(NS(=O)(=O)c4ccccc4Cl)cc3F)n2)CC1` [Compound 410, N-[4-[(1r,4r)[3-[2-[(4-Aminocyclohexyl)amino]pyrimidin-4-yl]pyrid-2-yl]oxy]-3-fluorophenyl]2-chlorobenzenesulfonamide], at most 10 nM.

Turning to `N[C@H]1CC[C@H](Nc2nccc(-c3scnc3Oc3ccc(NS(=O)(=O)c4ccccc4Cl)cc3F)n2)CC1` [Compound 403, N-[4-[(1r,4r)[5-[2-[(4-Aminocyclohexyl)amino]pyrimidin-4-yl]thiazol-4-yl]oxy]-3-fluorophenyl]2-chlorobenzenesulfonamide], the Kd is at most 10 nM. To `N[C@H]1CC[C@H](Nc2nccc(-c3cccnc3Oc3cc(Cl)c(NS(=O)(=O)c4cccc5ccccc45)cc3F)n2)CC1` [Compound 416, N-[4-[(1r,4r)[3-[2-[(4-Aminocyclohexyl)amino]pyrimidin-4-yl]pyrid-2-yl]oxy]-6-chloro-3-fluorophenyl]naphthalene-1-sulfonamide] belongs 11 to 100 nM; to `N[C@H]1CC[C@H](Nc2nccc(-c3cccnc3Oc3cc(Cl)c(NS(=O)(=O)c4ccccc4Cl)cc3F)n2)CC1` [Compound 414, N-[4-[(1r,4r)[3-[2-[(4-Aminocyclohexyl)amino]pyrimidin-4-yl]pyrid-2-yl]oxy]-6-chloro-3-fluorophenyl]2-chlorobenzenesulfonamide], at most 10 nM; to `O=S(=O)(Nc1ccc(Oc2ncccc2-c2ccnc(N[C@H]3CCCNC3)n2)cc1)c1ccccc1Cl` [Compound 412, N—((S)-4-((3-(2-(Piperidin-3-ylamino)pyrimidin-4-yl)pyridin-2-yl)oxy)phenyl) 2-chlorobenzenesulfonamide], 11 to 100 nM.
